Results taken from patent US6930106B2, “Inhibitors of HCV NS5B polymerase” (Pharmacia & UpJohn Company, priority 2002, dated 2005).
Structures can show the parent of a compound that is named as a salt.

Biological target: HCV NS5b RNA dependent RNA polymerase (Hepatitis C virus genotype 1a, UniProt P27958)
Assay: HCV NS5b RNA dependent RNA polymerase inhibition assay (3H-GTP incorporation, scintillation proximity)
Assay type: biochemical
Settings: inhibition of HCV NS5b polymerase activity; Table 2; read-out: concentration in micromolar required for 50% inhibition
Procedure: Compounds of the present invention are evaluated for inhibition of HCV NS5b RNA dependent RNA polymerase activity in assays comprised of a suitable buffer (e.g. 20 mM Tris-HCl pH 7.6), primed or unprimed RNA templates, GTP, ATP, CTP, and UTP, MnCl2 or MgCl2, and reducing agent such as 10 mM dithiothreitol or 2-mercaptoethanol. The assay buffer may contain salts such as ammonium acetate, KCl, or NaCl, and nonionic or zwitterionic detergents such as Tween or CHAPS. The incorporation of nucleotides into the complementary RNA strand may be monitored by the incorporation of radiolabeled NTP (e.g. ^3H labeled GTP). Suitable RNA templates for de novo initiation in the presence of 20-50 μM GTP or ATP are the homopolymers poly rC and poly rU, respectively. Heteropolymer RNA templates with 1-3 cytidine (C) bases or 1-3 uridine (U) bases at the 3′ terminus of the template may also be used for de novo initiation. Primed RNA templates such as poly rC primed with oligo rG or oligo dG, and poly rA primed with oligo rU may also be used to detect polymerase activity. The primers may be any length greater than 10 bases. A biotin residue may be added to the 5′ end of the template or the 5′ end of the primer to capture the template and the newly synthesized, complementary strand on avidin coated spheres. […]

Sequence of HCV NS5b RNA dependent RNA polymerase (P27958 2421-3011): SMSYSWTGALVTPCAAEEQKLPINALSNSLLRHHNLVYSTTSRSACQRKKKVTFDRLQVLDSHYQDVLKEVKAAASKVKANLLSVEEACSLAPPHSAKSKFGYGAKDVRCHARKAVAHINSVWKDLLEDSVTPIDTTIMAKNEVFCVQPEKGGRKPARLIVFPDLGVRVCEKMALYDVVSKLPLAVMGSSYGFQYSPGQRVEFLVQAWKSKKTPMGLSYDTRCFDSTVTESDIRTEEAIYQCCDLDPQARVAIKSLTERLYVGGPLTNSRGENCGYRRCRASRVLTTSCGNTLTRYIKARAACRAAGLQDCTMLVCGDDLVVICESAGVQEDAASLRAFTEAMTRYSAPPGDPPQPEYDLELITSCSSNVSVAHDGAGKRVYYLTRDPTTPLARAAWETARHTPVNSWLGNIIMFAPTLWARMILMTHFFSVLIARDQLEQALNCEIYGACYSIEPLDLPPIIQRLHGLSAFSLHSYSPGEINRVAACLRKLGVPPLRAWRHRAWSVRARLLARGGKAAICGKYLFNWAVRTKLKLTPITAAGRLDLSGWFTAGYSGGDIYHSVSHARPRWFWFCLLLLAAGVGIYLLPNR

| Structure (SMILES) | IC50 |
| --- | --- |
| NCc1ccc(Nc2ccc(C(F)(F)F)cc2NC(=O)c2cc(Cl)c(Cl)cc2C(=O)O)cc1 [i., 2-[[[2-[[4-(Aminomethyl)phenyl]amino]-5-(trifluoromethyl)phenyl]amino]carbonyl]-4,5-dichlorobenzoic acid monohydrochloride] | 1.42 µM |
| N#Cc1ccc(Nc2ccc(C(F)(F)F)cc2NC(=O)c2ccccc2C(=O)O)cc1 [xvii., 2-({[2-[(4-cyanophenyl)amino]-5-(trifluoromethyl)phenyl]amino}carbonyl)benzoic acid] | 1.74 µM |
